# US20090156609A1, “TREATMENT OF POST-TRAUMATIC STRESS DISORDER WITH TETRAHYDROINDOLONE ARYLPIPERZAINE COMPOUNDS” (priority 2007, published 2009)
# Like-named read-outs stand apart in the source and are kept apart here.
# Columns and labels:
# mice = test: Spontaneous Activity model (locomotor activity); assay type: in vivo
# Description: Ambulatory and non-ambulatory activity can be used to test spontaneous and drug-induced motor activity. The test can be used to profile the potential for a drug to induce hyperactivity or sedation.
# In this model, Kinder Scientific photobeam activity monitors are used to record the ambulatory and non-ambulatory motor activity. The monitors track the photobeam breaks made by the animal that are used to calculate the number of ambulatory and fine (non-ambulatory) motor movements. A drug-induced increase in activity can indicate the potential for an adverse event such as hyperactivity. A drug-induced decrease in response can indicate the potential for an adverse event such as sedation. Doses at which no significant change in activity are recorded, and more preferably at which no change in activity are recorded, can be selected for further evaluation.
# The present compounds were tested in the conditioned avoidance response (CAR) model and in the Spontaneous Activity model described above.
# Male C57 mice = test: PCP-induced disruption of prepulse inhibition (PPI) of the startle response; assay type: in vivo; conditions: for minimal effective dose: Mus musculus, 20 minutes prior to PCP 5 mg/kg IP, read-out: Effective Dose, Prepulse Inhibition Testing
# Description: The phencyclidine (PCP)-induced disruption of pre-pulse inhibition (PPI) has been used to predict efficacy in cognitive impairment and other disorders. In this test, a weaker auditory prestimulus (prepulse) inhibits the reaction of an test organism to a subsequent strong startle stimulus (pulse). Normal PPI functioning in mammals is critical in filtering out irrelevant sensory information, an inhibitory process that is affected in patients with PTSD. A reduction of the cognitive/attention impairment produced in the PPI model can be used as an efficacy measure for compound candidate selection.
# For testing of PPI, male C57 mice can be assigned to five dose groups of eight animals per group, and vehicle or test compound can then be administered orally (PO) or subcutaneously (SC) 20 minutes prior to intraperitoneal (IP) administration of vehicle or PCP (5 mg/kg). Ten minutes following PCP administration, the mice are placed into Hamilton-Kinder startle chambers and evaluation of pre-pulse inhibition procedure is performed. Following a five-minute acclimatization period with background white noise (65 decibels), mice were exposed to five different trial types. Trials were presented […] in a quasi-random order, with randomized 5 to 25 second inter-trial intervals. Trials were: stimulus only trial (120 decibel white noise, 50 ms stimulus); two different prepulse+pulse trials in which a 20 ms 5 decibel, or 10 decibel stimuli above a 65 decibel background preceded the 120 decibel pulse by 120 ms; a 10 decibel prepulse without a 120 decibel pulse; and a no stimulus trial, in which only the background noise was presented.
# Compounds which are observed to reduce and/or reverse PCP-induced impairment can be selected as candidates for further evaluation. Such reduction is also indicative of memory enhancement, which is also a positive indicator for further development.
# Male C57 mice were assigned to five dose groups of eight animals per group, and vehicle or a test compound was administered orally or subcutaneously 20 minutes prior to intraperitoneal administration of vehicle or PCP (5 mg/kg). Ten minutes following PCP administration, the mice were placed into Kinder Scientific startle chambers (Kinder Scientific, Poway, Calif.) and pre-pulse inhibition was evaluated. Following a five-minute acclimatization period with background white noise (65 dB), mice were exposed to five different trial types. Trials were presented in a quasi-random order, with randomized 5 to 25 second inter-trial intervals. The five different trials (presented 10 times each were): stimulus only trial (120 dB white noise, 50 ms stimulus); two different prepulse+pulse trials in which a 20 ms 5 dB or 10 dB stimulus above a 65 dB background preceded the 120 dB pulse by 120 ms; a 10 dB prepulse without a 120 dB pulse; and a no stimulus trial, in which only the background noise was presented.
smiles,measurement,setting,value
"O=C1CCCc2c1ccn2CCN1CCN(c2cccc(Cl)c2)CC1 [Compound A, 1-{2-[4-(3-Chlorophenyl)piperazin-1-yl]ethyl}-1,5,6,7-tetrahydroindol-4-one]","minimum effective dose, Locomotor Activity",mice; models unwanted side effects,>10 mg/kg
same,effect in the Spontaneous Activity model compared to vehicle treated mice,"mice; subcutaneous, doses of up to 10 mg/kg",did not produce any effect
same,minimal effective dose,"Male C57 mice; sc, subcutaneous",3 mg/kg
same,minimal effective dose,Male C57 mice; oral,1 mg/kg
same,prepulse inhibition versus control levels (FIG. 1),"Male C57 mice; doses of 10 mg/kg, PCP-induced disruption",inhibition was returned to control levels
same,"minimum effective dose, Prepulse Inhibition (PPI)","Male C57 mice; reversal of PCP-induced disruption, route not given",3 mg/kg
